Where a SMILES comes first, the peptide text is derived from it. [ ]: non-standard residue; d: D form. The star is where a group is joined. ξ: configuration not given here. Cha = N[C@@H](CC1CCCCC1)C(=O)O; ξCha = NC(CC1CCCCC1)C(=O)O; Isobutyryl = CC(C)C(=O)*; Aib = CC(C)(N)C(=O)O; Bz = O=C(c1ccccc1)*; ξAbu = CCC(N)C(=O)O; Sar = CNCC(=O)O
Legend:
[1] = target: T1, Neuropeptide Y receptor type 2 (Homo sapiens, UniProt P49146); assay: Agonist activity at human Y2R expressed in CHO cell membranes assessed as [35S]GTPgammaS binding after 120 mins by liquid scintillation method; type: functional
T1 sequence (P49146 whole entry): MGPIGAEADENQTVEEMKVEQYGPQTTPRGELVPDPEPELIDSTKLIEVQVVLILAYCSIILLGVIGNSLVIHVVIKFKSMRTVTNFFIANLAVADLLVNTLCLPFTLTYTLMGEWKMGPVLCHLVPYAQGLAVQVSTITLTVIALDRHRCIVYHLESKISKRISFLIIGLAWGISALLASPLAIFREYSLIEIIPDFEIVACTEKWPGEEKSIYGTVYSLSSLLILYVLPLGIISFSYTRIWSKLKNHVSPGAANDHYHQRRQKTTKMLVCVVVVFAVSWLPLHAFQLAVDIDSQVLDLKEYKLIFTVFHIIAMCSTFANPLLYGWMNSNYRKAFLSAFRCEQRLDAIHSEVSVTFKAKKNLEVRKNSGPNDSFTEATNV

[2] = target: T1, Neuropeptide Y receptor type 2; assay: Displacement of [125I]-PYY from human Y2R expressed in CHO cell membranes after 60 mins by liquid scintillation method
Mus musculus = assay: Antiobesity activity in lean C57BL/6J mouse assessed as inhibition of food intake at 1 mg/kg administered via subcutaneous osmotic pumps for 3 continuous days relative to control; details: sc

EC50 [1] [nM]	IC50 [2] [nM]	Compound	inhibition in vivo at 1 mg/kg (Mus musculus) [%]
3.8	23	CCC(NC(=O)[C@H](CCCNC(=N)N)NC(=O)[C@@H](CC(C)C)NC(=O)[C@@H](CO)NC(C)=O)C(=O)NC(CC1CCCCC1)C(=O)NC(CC1CCCCC1)C(=O)N[C@@H](CC(N)=O)C(=O)N[C@@H](CC(C)C)C(=O)NC(C)(C)C(=O)N[C@H](C(=O)N[C@@H](CCCNC(=N)N)C(=O)N[C@@H](CCC(N)=O)C(=O)N[C@@H](CCCNC(=N)N)C(=O)NC(CC1CCCCC1)C(N)=O)[C@@H](C)O (stereo partly specified)	
3	8.8	CCC(NC(=O)[C@H](CCCNC(=N)N)NC(=O)[C@H](CC(C)C)NC(=O)[C@H](CO)NC(C)=O)C(=O)NC(CC1CCCCC1)C(=O)NC(CC1CCCCC1)C(=O)N[C@@H](CC(N)=O)C(=O)N[C@@H](CC(C)C)C(=O)NC(C)(C)C(=O)N[C@H](C(=O)N[C@@H](CCCNC(=N)N)C(=O)N[C@@H](CCC(N)=O)C(=O)N[C@@H](CCCNC(=N)N)C(=O)NC(CC1CCCCC1)C(N)=O)[C@@H](C)O (stereo partly specified)	
1.2	5.4	CC(=O)N[C@@H](CO)C(=O)N(C)[C@@H](C)C(=O)N[C@@H](CCCNC(=N)N)C(=O)N[C@@H](Cc1cnc[nH]1)C(=O)NC(CC1CCCCC1)C(=O)NC(CC1CCCCC1)C(=O)N[C@@H](CC(N)=O)C(=O)N[C@@H](CC(C)C)C(=O)NC(C)(C)C(=O)N[C@H](C(=O)N[C@@H](CCCNC(=N)N)C(=O)N[C@@H](CCC(N)=O)C(=O)N[C@@H](CCCNC(=N)N)C(=O)NC(CC1CCCCC1)C(N)=O)[C@@H](C)O (stereo partly specified)	
5.5	12	CCC(NC(=O)[C@H](CCCNC(=N)N)NC(=O)[C@H](CC(C)C)NC(=O)[C@@H](CO)NC(C)=O)C(=O)NC(CC1CCCCC1)C(=O)NC(CC1CCCCC1)C(=O)N[C@@H](CC(N)=O)C(=O)N[C@@H](CC(C)C)C(=O)NC(C)(C)C(=O)N[C@H](C(=O)N[C@@H](CCCNC(=N)N)C(=O)N[C@@H](CCC(N)=O)C(=O)N[C@@H](CCCNC(=N)N)C(=O)NC(CC1CCCCC1)C(N)=O)[C@@H](C)O (stereo partly specified)	
1.3	11	CCC(NC(=O)[C@H](CCCNC(=N)N)NC(=O)[C@@H](CC(C)C)NC(=O)[C@H](CO)NC(C)=O)C(=O)NC(CC1CCCCC1)C(=O)NC(CC1CCCCC1)C(=O)N[C@@H](CC(N)=O)C(=O)N[C@@H](CC(C)C)C(=O)NC(C)(C)C(=O)N[C@H](C(=O)N[C@@H](CCCNC(=N)N)C(=O)N[C@@H](CCC(N)=O)C(=O)N[C@@H](CCCNC(=N)N)C(=O)NC(CC1CCCCC1)C(N)=O)[C@@H](C)O (stereo partly specified)	
0.61	1.5	CC(=O)N[C@@H](CO)C(=O)N1CCC[C@@H]1C(=O)N[C@@H](CCCNC(=N)N)C(=O)N[C@@H](Cc1cnc[nH]1)C(=O)NC(CC1CCCCC1)C(=O)NC(CC1CCCCC1)C(=O)N[C@@H](CC(N)=O)C(=O)N[C@@H](CC(C)C)C(=O)NC(C)(C)C(=O)N[C@H](C(=O)N[C@@H](CCCNC(=N)N)C(=O)N[C@@H](CCC(N)=O)C(=O)N[C@@H](CCCNC(=N)N)C(=O)NC(CC1CCCCC1)C(N)=O)[C@@H](C)O (stereo partly specified)	33
0.59	2.8	CC(=O)N[C@@H](CO)C(=O)N(C)[C@H](C)C(=O)N[C@@H](CCCNC(=N)N)C(=O)N[C@@H](Cc1cnc[nH]1)C(=O)NC(CC1CCCCC1)C(=O)NC(CC1CCCCC1)C(=O)N[C@@H](CC(N)=O)C(=O)N[C@@H](CC(C)C)C(=O)NC(C)(C)C(=O)N[C@H](C(=O)N[C@@H](CCCNC(=N)N)C(=O)N[C@@H](CCC(N)=O)C(=O)N[C@@H](CCCNC(=N)N)C(=O)NC(CC1CCCCC1)C(N)=O)[C@@H](C)O (stereo partly specified)	28
4.6	6.8	CCC(NC(=O)[C@H](CCCNC(=N)N)NC(=O)[C@H](CC(C)C)NC(=O)[C@H](CO)NC(=O)[C@H](C)NC(C)=O)C(=O)NC(CC1CCCCC1)C(=O)NC(CC1CCCCC1)C(=O)N[C@@H](CC(N)=O)C(=O)N[C@@H](CC(C)C)C(=O)NC(C)(C)C(=O)N[C@H](C(=O)N[C@@H](CCCNC(=N)N)C(=O)N[C@@H](CCC(N)=O)C(=O)N[C@@H](CCCNC(=N)N)C(=O)NC(CC1CCCCC1)C(N)=O)[C@@H](C)O (stereo partly specified) (Ac-ASLR[ξAbu][ξCha][ξCha]NL[Aib]TRQR[ξCha]-NH2)	
6.4	17	CCC(NC(=O)[C@H](CCCNC(=N)N)NC(=O)[C@H](CC(C)C)NC(C)=O)C(=O)NC(CC1CCCCC1)C(=O)NC(CC1CCCCC1)C(=O)N[C@@H](CC(N)=O)C(=O)N[C@@H](CC(C)C)C(=O)NC(C)(C)C(=O)N[C@H](C(=O)N[C@@H](CCCNC(=N)N)C(=O)N[C@@H](CCC(N)=O)C(=O)N[C@@H](CCCNC(=N)N)C(=O)NC(CC1CCCCC1)C(N)=O)[C@@H](C)O (stereo partly specified) (Ac-LR[ξAbu][ξCha][ξCha]NL[Aib]TRQR[ξCha]-NH2)	
1.3	4.8	CC(=O)N[C@@H](CO)C(=O)NCC(=O)N[C@@H](CCCNC(=N)N)C(=O)N[C@@H](Cc1cnc[nH]1)C(=O)NC(CC1CCCCC1)C(=O)NC(CC1CCCCC1)C(=O)N[C@@H](CC(N)=O)C(=O)N[C@@H](CC(C)C)C(=O)NC(C)(C)C(=O)N[C@H](C(=O)N[C@@H](CCCNC(=N)N)C(=O)N[C@@H](CCC(N)=O)C(=O)N[C@@H](CCCNC(=N)N)C(=O)NC(CC1CCCCC1)C(N)=O)[C@@H](C)O (stereo partly specified) (Ac-SGRH[ξCha][ξCha]NL[Aib]TRQR[ξCha]-NH2)	
0.55	2	CC(=O)N[C@@H](CO)C(=O)NC(C)(C)C(=O)N[C@@H](CCCNC(=N)N)C(=O)N[C@@H](Cc1cnc[nH]1)C(=O)NC(CC1CCCCC1)C(=O)NC(CC1CCCCC1)C(=O)N[C@@H](CC(N)=O)C(=O)N[C@@H](CC(C)C)C(=O)NC(C)(C)C(=O)N[C@H](C(=O)N[C@@H](CCCNC(=N)N)C(=O)N[C@@H](CCC(N)=O)C(=O)N[C@@H](CCCNC(=N)N)C(=O)NC(CC1CCCCC1)C(N)=O)[C@@H](C)O (stereo partly specified) (Ac-S[Aib]RH[ξCha][ξCha]NL[Aib]TRQR[ξCha]-NH2)	51
1	2.8	CC(=O)N[C@@H](CO)C(=O)N(C)CC(=O)N[C@@H](CCCNC(=N)N)C(=O)N[C@@H](Cc1cnc[nH]1)C(=O)NC(CC1CCCCC1)C(=O)NC(CC1CCCCC1)C(=O)N[C@@H](CC(N)=O)C(=O)N[C@@H](CC(C)C)C(=O)NC(C)(C)C(=O)N[C@H](C(=O)N[C@@H](CCCNC(=N)N)C(=O)N[C@@H](CCC(N)=O)C(=O)N[C@@H](CCCNC(=N)N)C(=O)NC(CC1CCCCC1)C(N)=O)[C@@H](C)O (stereo partly specified) (Ac-S[Sar]RH[ξCha][ξCha]NL[Aib]TRQR[ξCha]-NH2)	13
4.6	5.7	CCC(NC(=O)[C@H](CCCNC(=N)N)NC(=O)c1ccccc1)C(=O)NC(CC1CCCCC1)C(=O)NC(CC1CCCCC1)C(=O)N[C@@H](CC(N)=O)C(=O)N[C@@H](CC(C)C)C(=O)NC(C)(C)C(=O)N[C@H](C(=O)N[C@@H](CCCNC(=N)N)C(=O)N[C@@H](CCC(N)=O)C(=O)N[C@@H](CCCNC(=N)N)C(=O)NC(CC1CCCCC1)C(N)=O)[C@@H](C)O (stereo partly specified) (Bz-R[ξAbu][ξCha][ξCha]NL[Aib]TRQR[ξCha]-NH2)	
0.74	1.7	CC(C)C[C@H](NC(=O)[C@H](CO)NC(=O)[C@H](C)N)C(=O)N[C@@H](CCCNC(=N)N)C(=O)N[C@@H](Cc1cnc[nH]1)C(=O)N[C@@H](CC1CCCCC1)C(=O)N[C@@H](CC1CCCCC1)C(=O)N[C@@H](CC(N)=O)C(=O)N[C@@H](CC(C)C)C(=O)NC(C)(C)C(=O)N[C@H](C(=O)N[C@@H](CCCNC(=N)N)C(=O)N[C@@H](CCC(N)=O)C(=O)N[C@@H](CCCNC(=N)N)C(=O)N[C@@H](CC1CCCCC1)C(N)=O)[C@@H](C)O (H-ASLRH[Cha][Cha]NL[Aib]TRQR[Cha]-NH2)	
2.5	2.7	CCC(NC(=O)[C@H](CCCNC(=N)N)NC(=O)[C@H](CC(C)C)NC(=O)[C@H](CO)NC(=O)[C@H](C)N)C(=O)NC(CC1CCCCC1)C(=O)NC(CC1CCCCC1)C(=O)N[C@@H](CC(N)=O)C(=O)N[C@@H](CC(C)C)C(=O)NC(C)(C)C(=O)N[C@H](C(=O)N[C@@H](CCCNC(=N)N)C(=O)N[C@@H](CCC(N)=O)C(=O)N[C@@H](CCCNC(=N)N)C(=O)NC(CC1CCCCC1)C(N)=O)[C@@H](C)O (stereo partly specified) (H-ASLR[ξAbu][ξCha][ξCha]NL[Aib]TRQR[ξCha]-NH2)	
4.2	7.3	CCC(NC(=O)[C@H](CCCNC(=N)N)NC(=O)C(C)C)C(=O)NC(CC1CCCCC1)C(=O)NC(CC1CCCCC1)C(=O)N[C@@H](CC(N)=O)C(=O)N[C@@H](CC(C)C)C(=O)NC(C)(C)C(=O)N[C@H](C(=O)N[C@@H](CCCNC(=N)N)C(=O)N[C@@H](CCC(N)=O)C(=O)N[C@@H](CCCNC(=N)N)C(=O)NC(CC1CCCCC1)C(N)=O)[C@@H](C)O (stereo partly specified) (Isobutyryl-R[ξAbu][ξCha][ξCha]NL[Aib]TRQR[ξCha]-NH2)	

— ChEMBL document CHEMBL4033754, “Antiobesity Effect of a Short-Length Peptide YY Analogue after Continuous Administration in Mice” (ACS Med Chem Lett, 2017)
